Results as given in patent publication US12509437B2, “Substituted thiophene carboxamides and derivatives thereof as microbicides” (Bayer Aktiengesellschaft, priority 2019, dated 2025).

Assays:
[1] = tested on: Xanthomonas campestris pv. campestris; experiment: In vivo preventive test on Xanthomonas campestris pv. campestris (black rot on cabbage); conditions: Xanthomonas campestris, sprayed 72 hours before inoculation, evaluated 8 or 10 days after inoculation, read-out: efficacy; for pest or weed control at 31 ppm: 31 ppm of active ingredient; for pest or weed control at 125 ppm: 125 ppm of active ingredient; for pest or weed control at 500 ppm: 500 ppm of active ingredient
Method in brief: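 Young cabbage plants sprayed preventively with compound formulated in acetone/DMSO/Tween and diluted in water, then inoculated 72 h later with a bacterial spray. Kept at 27° C, 95% relative humidity; disease scored after 8 or 10 days as % efficacy versus solvent-treated controls (0% = control, 100% = no disease).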

[2] = tested on: Xanthomonas campestris pv. campestris; experiment: Xanthomonas campestris pv. campestris in vitro cell test; format: cell-based; conditions: 24 h of incubation, read-out: efficacy (inhibition of bacteria growth; no direct activity); for inhibition at 5 ppm: 5 ppm of active ingredient; for inhibition at 20 ppm: 20 ppm of active ingredient
Method in brief: (§1)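 Bacteria from liquid pre-culture diluted to set OD in LB broth and exposed to compounds dissolved in DMSO (final ≤1%). After 24 h, growth read by absorbance; inhibition derived relative to compound-free control wells.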

[3] = tested on: Pseudomonas syringae pv. tomato; experiment: Pseudomonas syringae pv. tomato in vitro cell test; format: cell-based; conditions: 20 ppm of active ingredient, 24 h of incubation, read-out: efficacy (inhibition of bacteria growth; no direct activity)
Method in brief: as §1

Compound | pest or weed control at 31 ppm [1] [%] | pest or weed control at 125 ppm [1] [%] | pest or weed control at 500 ppm [1] [%] | inhibition at 5 ppm [2] [%] | inhibition at 20 ppm [3] [%] | inhibition at 20 ppm [2] [%]
COC(=O)C(NC(=O)c1sc(Br)c(Br)c1C)C1CC1 (stereo not drawn) [I.032] | 90 to 100 | 90 to 100 | 90 to 100 | ≤ 30 | ≤ 30 | –
CCOC(=O)C1(NC(=O)c2sc(Cl)c(Cl)c2C)CCC1 [I.047] | – | 80 to 89 | – | ≤ 30 | ≤ 30 | ≤ 30
Cc1c(C(=S)NC2(C(=O)O)CC2)sc(Cl)c1Cl [I.060] | – | 70 to 79 | 80 to 89 | ≤ 30 | ≤ 30 | ≤ 30
CCOC(=O)C(C#N)NC(=O)c1sc(Br)c(Br)c1C (stereo not drawn) [I.077] | 80 to 89 | 80 to 89 | – | ≤ 30 | ≤ 30 | ≤ 30
Cc1c(C(=O)NC(C(=O)O)C2CC2)sc(Br)c1Br (stereo not drawn) [I.080, cyclopropyl{[(4,5-dibromo-3-methyl-2-thienyl)carbonyl]amino}acetic acid] | 70 to 79 | 80 to 89 | 90 to 100 | ≤ 30 | ≤ 30 | ≤ 30
COC(=O)C(NC(=O)c1sc(Cl)c(Cl)c1C)C1CC1 (stereo not drawn) [I.081, methyl cyclopropyl{[(4,5-dichloro-3-methyl-2-thienyl)carbonyl]amino}acetate] | 80 to 89 | 90 to 100 | – | ≤ 30 | ≤ 30 | ≤ 30
Cc1c(C(=O)NC(C(=O)O)C2CC2)sc(Cl)c1Cl (stereo not drawn) [I.095] | 70 to 79 | 90 to 100 | 90 to 100 | ≤ 30 | ≤ 30 | ≤ 30
COC(=O)CC[C@H](NC(=O)c1sc(Cl)c(Cl)c1C)C(=O)OC [I.122] | 90 to 100 | 90 to 100 | 90 to 100 | ≤ 30 | ≤ 30 | ≤ 30
